Results reported in US20240408064A1, “RAS INHIBITORS, COMPOSITIONS AND METHODS OF USE THEREOF” (GENETOLEAD INC., priority 2021, published 2024).
“And” between values parts separate entries of the source, which are not always exact repeats. Equal entries are not always repeated.

What was measured:
[1] = target: T1, HRas^G12V (Homo sapiens (Human), UniProt P01112, G12V); assay: 19F DLB (ligand-observed 19F NMR) score; assay type: binding; design: scale not given here
Description: (§1) All NMR experiments were collected using 3 mm NMR tubes on a 600 MHz Bruker Avance III spectrometer equipped with a QCI helium cryoprobe and a SampleJet sample changer. The buffer used for NMR experiments was 25 mM sodium phosphate pH 7.4, 150 mM NaCl, 5 mM MgCl2, 1 mM TCEP-d16, 10% D2O. Data were processed using Bruker TopSpin.
(§2) Since the fragment library was curated using phosphate buffer, 25 mM sodium phosphate pH 7.4, 150 mM NaCl, 5 mM MgCl2, 1 mM TCEP-d16, 10% D2O Fresh TCEP was used for experiments. Screening was performed using ^1H-decoupled 1D ^19F experiment Bruker experiment (zgfhigqn.2) with 64 scans and a relaxation delay of 5 seconds. 50 μM HRas^G12V and 240 μM of each fragment in pools (mixtures) were used.
Hit confirmation was performed using the same ^19F experiment as the screen. Ligand-observed 1D ^1H, protein-observed 1D ^1H, ^1H T2-CPMG as well as Saturation Transfer Difference (STD) experiments were also run on the same samples. Ligand-observed 1D ^1H was run using the standard Bruker sequence with excitation sculpting (zgesgp) with a relaxation delay of 10 seconds and 16 scans per spectrum. Protein-observed 1D ^1H was performed using the same sequence with a relaxation delay of 1 second and 256 scans in order to increase the signal-to-noise of the protein resonances, while keeping the experimental time relatively short. The ^1H T2-CPMG experiment employed a modified version of the Bruker 1D ^1H zgesgp experiment with the addition of a CPMG pulse train after the first 90° excitation pulse. Total duration for each spin echo was fixed at 1 ms (τ=500 μs), while the number of echoes in the pulse train was varied according to the total time (T). The number of scans for each spectrum was 4 and eight delay times were run on each sample, ranging from 1 ms to 800 ms. […]

[2] = target: T1, HRas^G12V; assay: 19F T2-CPMG NMR score; assay type: binding
Description: as §1, §2
Hit confirmation was performed using the same ^19F experiment as the screen. Ligand-observed 1D ^1H, protein-observed 1D ^1H, ^1H T2-CPMG as well as Saturation Transfer Difference (STD) experiments were also run on the same samples. Ligand-observed 1D ^1H was run using the standard Bruker sequence with excitation sculpting (zgesgp) with a relaxation delay of 10 seconds and 16 scans per spectrum. Protein-observed 1D ^1H was performed using the same sequence with a relaxation delay of 1 second and 256 scans in order to increase the signal-to-noise of the protein resonances, while keeping the experimental time relatively short. The ^1H T2-CPMG experiment employed a modified version of the Bruker 1D ^1H zgesgp experiment with the addition of a CPMG pulse train after the first 90° excitation pulse. Total duration for each spin echo was fixed at 1 ms (τ=500 μs), while the number of echoes in the pulse train was varied according to the total time (T). The number of scans for each spectrum was 4 and eight delay times were run on each sample, ranging from 1 ms to 800 ms.
Because of its power to probe the intrinsically weak interactions (Kd) between targets and low-molecular weight fragments, NMR fragment-based lead discovery (FBLD) is a very useful biophysical method in early stage drug discovery, especially for challenging target proteins; including those with shallow binding pockets. Since FBLD screens are performed using low-molecular weight compounds (fragments) with lower structural complexity, the same chemical space can be covered using a smaller number of drug-like fragments versus use of large libraries of higher-molecular weight lead-like compounds as in high throughput screening (HTS) campaigns. Therefore, FBLD has a much higher hit rate than HTS using only several hundred to several thousand compounds in comparison with approximately 1 million compounds for HTS. Also, the small size of the compounds screened in FBLD means a better chance to fully match the interactions with small or transient pockets within the target protein, where these less tractable pockets cannot be accessed with standard classical HTS methods. […] We expect this methodology to be more advantageous than classical HTS methods for expediting the time from hit to lead (H2L) and allows for rapid access to high quality leads with lower attrition rates in subsequent lead optimization (LO) campaigns toward pre-clinical candidate selection. FBLD screening by NMR involves a “consensus binding” approach where several distinct NMR experiments (DLB, STD, CPMG) are applied along with a free-state aggregation detection method (T2-CPMG) to rank the compounds for their affinity to the receptor (HRAS in this case) whilst simultaneously monitoring the solution behavior and critical quality attributes of each compound. The latter helps to eliminate artifact binders which are highly problematic. We performed a fluorine screen involving 461 compounds that were derived from a highly curated fragment library. Moreover, two-dimensional ^15N HSQC NMR was also used to validate ligand-binding sites on the target protein. […]

T1 sequence (P01112 1-166 G12V): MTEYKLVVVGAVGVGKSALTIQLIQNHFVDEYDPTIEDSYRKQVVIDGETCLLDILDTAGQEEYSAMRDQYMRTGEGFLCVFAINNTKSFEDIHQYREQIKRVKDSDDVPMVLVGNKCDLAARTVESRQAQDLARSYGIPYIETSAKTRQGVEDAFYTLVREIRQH

Compound	19F DLB Score [1]	19F T2-CPMG Score [2]
COC(=O)C1CCN1C(=O)Cc1c[nH]c2cc(F)ccc12 (stereo not drawn) [Compound 10088, Methyl 1-(2-(6-fluoro-1H-indol-3-yl)acetyl)azetidine-2-carboxylate]	2.24	11.14
CC1CN(C(=O)Cc2n[nH]c3cc(F)ccc23)C1 [Compound 10144, 2-(6-fluoro-1H-indazol-3-yl)-1-(3-methylazetidin-1-yl)ethan-1-one]	1.93	9.44
COC[C@H]1CN(C(=O)Cc2c[nH]c3cc(F)ccc23)CCO1 [Compound 10154, (R)-2-(6-fluoro-1H-indol-3-yl)-1-(2-(methoxymethyl)morpholino)ethan-1-one]	1.62	8.16
O=C(O)C(NCc1cncc(Br)c1)c1c[nH]c2cc(F)ccc12 (stereo not drawn) [Compound 11061]	Non conclusive	
CC(O)C1CN(C(=O)Cc2c[nH]c3cc(F)ccc23)C1 (stereo not drawn) [Compound 10131, 2-(6-fluoro-1H-indol-3-yl)-1-(3-(1-hydroxyethyl)azetidin-1-yl)ethan-1-one]	2.17	20.77
CC(C)C(=O)C1CN(C(=O)Cc2c[nH]c3cc(F)ccc23)C1 [Compound 10116]	1.88	13.95
CC(=O)Nc1cccc(NC(=O)C(C#N)c2c[nH]c3cc(F)ccc23)c1 (stereo not drawn) [Compound 11035]	5.34	
O=C(O)CC(c1ccc(F)cc1F)c1c[nH]c2cc(F)ccc12 (stereo not drawn) [Compound 11056]	Non conclusive	
O=C(O)C(NCc1ccccc1)c1c[nH]c2cc(F)ccc12 (stereo not drawn) [Compound 11060]	Non conclusive	
CN(C)Cc1cc2ccc(F)cc2[nH]1 [Compound 11049]	Non conclusive	
O=C(O)CCc1c[nH]c2cc(F)ccc12 [Compound 11050]	Non conclusive	
COc1ccc(C(CC(=O)O)c2c[nH]c3cc(F)ccc23)cc1 (stereo not drawn) [Compound 11057]	Non conclusive	
O=C(O)CC(c1cccc(F)c1)c1c[nH]c2cc(F)ccc12 (stereo not drawn) [Compound 11059]	Non conclusive	
O=C(O)C(NCc1ccc(O)cc1)c1c[nH]c2cc(F)ccc12 (stereo not drawn) [Compound 11063]	Non conclusive	
O=C1C[C@@H](c2c[nH]c3cc(F)ccc23)C(=O)N1 (single isomer, unassigned) [Compound 11040]	3.49	

Continued, values first:

19F DLB Score [1]	19F T2-CPMG Score [2]	Compound
1.93	10.24	CC(=O)N1CCC(C(=O)N2CCC(c3c[nH]c4cc(F)ccc34)CC2)CC1 [Compound 11029]
2.09	12.1	CCOC(=O)CC1CCN(C(=O)Cc2c[nH]c3cc(F)ccc23)CC1 [Compound 10130]
2.07	7.87	CCOC(=O)[C@@H]1CCCN(C(=O)Cc2c[nH]c3cc(F)ccc23)C1 [Compound 10161]
2.79	22.81	O=C(C1CCNCC1)N1CCC(c2c[nH]c3cc(F)ccc23)CC1 [Compound 11047]
2.54	21.31	O=C(Cc1c[nH]c2cc(F)ccc12)N1CC2(COC2)C1 [Compound 10069]
6.06		CC1CN(C(=O)C(C#N)c2c[nH]c3cc(F)ccc23)C1 (stereo not drawn) [Compound 11033]
4.63 and 2.64		O=C(Cc1c[nH]c2cc(F)ccc12)N1CCOCC1 [Compound 10016]
Non conclusive		O=C(O)C(c1c[nH]c2cc(F)ccc12)N1CCC(O)CC1 (stereo not drawn) [Compound 11062]
2.37		O=C(C1CCNCC1)N1CCC(c2c[nH]c3cc(F)ccc23)C1 (stereo not drawn) [Compound 11038]
3.29		O=C(C1CCCNC1)N1CCC(c2c[nH]c3cc(F)ccc23)CC1 (stereo not drawn) [Compound 11048]
3.58		O=C(C1CCNC1)N1CCC(c2c[nH]c3cc(F)ccc23)CC1 (stereo not drawn) [Compound 11046]
